According to US7432228B2, “Inhibitor against biosynthesis of abscisic acid” (Riken, priority 2001, dated 2008):

Legend:
[1] = test system: epoxycarotenoid dioxygenase (NCED); experiment: Inhibitory action against epoxycarotenoid dioxygenase (NCED): cleavage reaction of neoxanthin; assay type: biochemical; conditions: concentration of 100 μM
Description: The inhibitory action against epoxycarotenoid dioxygenase was studied. The test was carried out according to the method described in The Plant Journal (2001) 27(4), 325-333.
The NCED inhibitory activity of the compounds of the present invention was studied.

[2] = test system: spinach; experiment: Inhibitory test against pore closing; assay type: in vivo; conditions: for inhibitory activities against pore closing: plants with open pores treated with compound, transferred into mannose solution of high concentration
Description: Inhibitory tests against pore closing were carried out by using the aforementioned compounds. In these tests, plants in the state that their pores are open are treated with the compounds, and closings of the pores are examined when the plants are transferred into a mannose solution of high concentration to make the pores closed. Pore closing is caused by the effect of abscisic acid biosynthesized in the body of a plant that has detected the change of the mannose concentration. The test was carried out according to the method described in the literature of Plant Physiology (1992) 99, 1258-1260 and by using spinach as a material.

[3] = test system: abscisic acid biosynthesis; conditions: reported in Plant Physiology (1992) 99, 1258-1260; cited from earlier work
[4] = test system: Mung bean; experiment: Root length of cut Mung bean hypocotyls soaked in compound solutions; assay type: in vivo; conditions: Mung bean hypocotyls soaked by 2 cm in compound solution at a given concentration; 6th day after soaking
Description: The compounds of the present invention were applied to plant bodies. Hypocotyls of Mung bean on the 6th-day after seeding, that were grown at 25° C., were cut in water with razor, and the hypocotyl parts were soaked by 2 cm in solutions of the compounds at a given concentration. On the 6th day after the soaking, the lengths of the roots were measured. The following results were shown as an average length per root.

[5] = test system: seeds of barley; experiment: Germination rate of barley seeds; assay type: in vivo; conditions: barley seeds with lowered germination rate; 100 seeds, test solution at a given concentration, light, 25° C., after one week
Description: In the test, 2 sheets of filter paper were placed in a 15 cm laboratory dish, and each of the test solutions of the compounds at a given concentration (10 ml) was added to the dish, and 100 seeds were put on the paper and cultured under a light at 25° C. Ratios of germinated seeds were calculated after one week.

SMILES	inhibition of the cleavage reaction of neoxanthin by NCED [1]	pore closing when treated plants were added with abscisic acid ([2]; compound-treated plants, abscisic acid added)	inhibitory action on the abscisic acid biosynthesis [3]	inhibitory activities against pore closing [2]	Length (cm), average length per root [4]	Germination rate (%) [5]
CC(Cc1ccc(O)c(O)c1)C(C)Cc1ccc(O)c(O)c1 (centres unmarked) [NDGA, 4,4′-(2,3-dimethyl-1,4-butanediyl)bis-1,2-benzenediol]	completely inhibited	did not close	inhibitory action on the abscisic acid biosynthesis	–	–	–
COc1ccc(NCC=Cc2ccc(OC)c(OC)c2)cc1 [SY87, [3-(3,4-dimethoxy-phenyl)-allyl]-(4-methoxy-phenyl)-amine]	–	–	–	potent inhibitory activities	0.6 cm	40%
COc1ccc(CNCCc2ccc(O)cc2)cc1OC [SY88, 4-[2-(3,4-dimethoxy-benzylamino)-ethyl]-phenol]	–	–	–	–	>0.1 cm	8%
Oc1ccc(CCNCc2ccc(O)c(O)c2)cc1 [SY90, 4-{[2-(4-hydroxy-phenyl)-ethylamino]-methyl}-benzene-1,2-diol]	–	–	–	–	>0.1 cm	12%
COC(=O)COc1ccc(CCN(CC(=O)OC)Cc2ccc(OC)c(OC)c2)cc1 [SY94, {(3,4-dimethoxy-benzyl)-[2-(4-methoxycarbonylmethoxy-phenyl)-ethyl]-amino}-acetic acid methyl ester]	–	–	–	potent inhibitory activities	2.1 cm	52%
COc1ccc(C=CCNCc2ccc(F)cc2)cc1OC [SY95, [3-(3,4-dimethoxy-phenyl)-allyl]-(4-fluoro-benzyl)-amine]	–	–	–	potent inhibitory activities	0.6 cm	29%
COc1ccc(CCN(C)Cc2ccc(OC)c(OC)c2)cc1 [SY96, (3,4-dimethoxy-benzyl)-[2-(4-methoxy-phenyl)-ethyl]-methyl-amine]	–	–	–	potent inhibitory activities	1.5 cm	21%
COC(=O)CN(CC=Cc1ccc(OC)c(OC)c1)Cc1ccc(F)cc1 [SY97, [[3-(3,4-dimethoxy-phenyl)-allyl]-(4-fluoro-benzyl)-amino]-acetic acid methyl ester]	–	–	–	potent inhibitory activities	0.7 cm	18%
COc1ccc(C=CCN(C)Cc2ccc(F)cc2)cc1OC [SY99, [3-(3,4-dimethoxy-phenyl)-allyl]-(4-fluoro-benzyl)-methyl-amine]	–	–	–	potent inhibitory activities	0.4 cm	15%
Oc1ccc(CCNCc2ccncc2)cc1 [SY106, 4-{2-[(pyridin-4-ylmethyl)-2-amino]-ethyl}-phenol]	–	–	–	–	>0.1 cm	9%
Oc1ccc(CCNCc2ccoc2)cc1 [SY107, 4-{2-[(furan-3-ylmethyl)-amino]-ethyl}-phenol]	–	–	–	–	>0.1 cm	10%
Oc1ccc(CCNCc2ccccc2O)cc1 [SY109, 4-[2-(2-hydroxy-benzylamino)-ethyl]-phenol]	–	–	–	potent inhibitory activities	1.5 cm	35%
